Reference: patent US20260248852A1, “SYNTHETIC ANTIGEN RECEPTORS FOR COVALENT IMMUNE RECRUITERS AND METHODS AND USES THEREOF” (McMaster University, priority 2022, published 2026)
Entries after “also recorded” stand apart in the source; their conditions may differ.

Tests used:
[1] = tested on: Anti-DNP DAP12-SAR GDT cells; assay: Labeling time course of Anti-DNP DAP12-SAR GDT cells with CIR/(N)CIR; assay type: binding, human; details: 10 nM, 100 nM, 1 uM, up to 3 hours
Procedure: (§1) Engineered GDT-cells: PBMCs were seeded at 4E6 cells per well in a 24 well G-Rex plate in the presence of 1 ug/ml zoledronate and 1.5 ng/ml human IL2. Three days later, the cells were incubated overnight in a 24 well non tissue culture treated plate that was pre coated with retronectin and retrovirus supernatant containing viruses encoding either the Anti-DNP DAP12-SAR or the Anti-DNP CD28 CAR. The cells were then transferred back to the G-Rex plate and cultured for a further 11 days at which point, the cell product was collected, CD4/CD8 T cells were removed by magnetic selection and the purified engineered GDT cells were cryopreserved.
(§2) Flow cytometry: To assess the fraction of GDT cells which express the Anti-DNP synthetic antigen receptor, the cells were stained with the following antibodies/fluorophores: Myc biotin, streptavidin PE, vδ2 APC, TCR ab FITC, and CD3 BV605. The CD3 BV605, TCR ab FITC, and Vδ2 APC were used to specifically gate on Vδ2 GDT-cells. The anti-Myc biotin and streptavidin PE secondary were used to assess transduction level.
(§3) For labeling time-course studies, T-cells were incubated with varying concentrations (10 nM, 100 nM, 1 uM) of either DNP-Acyl Imidazole-Desthiobiotin or DNP-Desthiobiotin for different time periods up to 3 hours at room temperature in FACs buffer. […]

[2] = tested on: Anti-DNP TAC T cells (anti-DNP scFv containing T-cells); assay: Labeling of Anti-DNP TAC ABT cells with CIR/(N)CIR, Streptavidin-PE flow cytometry; assay type: binding, human; details: 1 uM; for labeling time course (binding): 10 nM, 100 nM, up to 3 hours at room temperature, washed; for covalent binding and labeling of T cells (Streptavidin-PE): Anti-DNP TAC ABT cells, overnight at 4 degrees, washed 3 times
Procedure: (§4) Labeling with CIR/(N)CIR: ABT-cells were labelled overnight at 4 degrees in T-cell media with 1 uM of either DNP-Acyl Imidazole-Desthiobiotin or DNP-Desthiobiotin. DNP-Glycine competitor was also added to some conditions with at 200 uM as a competitor to assess labelling specificity. After the overnight incubation the samples were washed 3 times with FACs buffer to remove any non-covalently bound molecule and stained with Streptavidin-PE to assess labelling. The samples were also stained with near IR Live/Dead, anti-CD4 Pacific Blue, and anti-CD8 Alexa fluor 700 to allow for appropriate gating on live ABT-cells. The samples were assessed for Streptavidin-PE labelling via flow cytometry.
For labeling time-course studies, T-cells were incubated with varying concentrations (10 nM, 100 nM, 1 uM) of either DNP-Acyl Imidazole-Desthiobiotin or DNP-Desthiobiotin for different time periods up to 3 hours at room temperature in FACs buffer. The “0” hour time point was the final time point and accounts for the 5-minute period needed to spike in CIR/(N)CIR and spin down to stop labelling. After adding DNP-Acyl Imidazole-Desthiobiotin or DNP-Desthiobiotin to all time points the cells were washed 3 times and stained for flow cytometry analysis as described above.
as §4, with “either DNP-SuFEx-Desthiobiotin,” for “either”, “αβ T-cells.” for “ABT-cells.”

[3] = tested on: Anti-DNP CD28 CAR GDT cells; assay: Labeling time course of Anti-DNP CD28 CAR GDT cells with CIR/(N)CIR; assay type: binding, human; details: 10 nM, 100 nM, 1 uM, up to 3 hours
Procedure: as §1, §2, §3

[4] = tested on: PSMA transduced HEK-293 cells; assay: IFN-gamma / TNF-alpha production of Anti-DNP TAC ABT cells following stimulation with HEK-293 PSMA cells; assay type: cell-based, human; details: Anti-DNP TAC ABT cells prelabelled 6 hours; co-culture 4 hours
Procedure: The cells were co-cultured together for 4 hours at 37 degrees. Golgi plug was added prior to the co-incubation to prevent cytokine secretion. To stop the activation 20 mM EDTA was added and incubated for 15 minutes. The cells were spun down, media was aspirated, and the cells were stored in 200 μL of cRPMI overnight at 4 degrees. The next day, the cells were surface stained with anti-CD4 Pacific Blue, anti-CD8 Alexa Fluor 700, and anti-NGFR Viobright FITC. The cells were then fixed and permeabilized using a fix/perm buffer solution. The cells were then intracellularly stained with anti-CD3 BV605, anti-TNF-alpha PE-CY7, and anti-IFN-gamma APC. Cells were then run on the Beckman Coulter Cytoflex flow cytometer. The percent of cells positive for TNF-alpha and IFN-gamma, as well as cells positive for both were recorded in the table for the separate CD4 and CD8 T-cell populations.

[5] = tested on: 293-PSMA cells; assay: Proliferation of adapter functionalized engineered ABT cells (CellTrace Violet); assay type: cell-based, human
Procedure: Each engineered T cell was also cultured in media alone as a control to compare to. All proliferation assay samples were incubated for 3 days at 37° C. and 5% CO2. Cells were then stained with Live/Dead Fixable Near-IR stain, PerCP-Cy5.5-conjugated mouse anti-human CD8a, Alexa Fluor 700-conjugated mouse anti-human CD4, VioBright FITC-conjugated mouse anti-human NGFR, and BV605-conjugated mouse anti-human CD3. Flow cytometry data were acquired.

[6] = tested on: PSMA transduced HEK-293 cells; assay: CD69 upregulation of DNP-TAC T cells following stimulation with HEK-293 PSMA cells; assay type: cell-based, human; details: DNP-TAC T cells pre labelled 6 hours; co-culture overnight
Procedure: The cells were co-cultured together overnight at 37 degrees. To stop the activation, 20 mM EDTA was added and incubated for 15 minutes. The cells were spun down, media was aspirated, and the cells were stored in 200 μL of cRPMI at 4 degrees prior to staining. The cells were stained with Live-Dead Zombie Aqua, anti-CD3 BV605, anti-CD4 Pacific Blue, anti-CD8 Alexa Fluor 700, anti-NGFR Viobright FITC, and anti-CD69 BV650. Upon staining the cells were run on the Beckman Coulter Cytoflex flow cytometer and analyzed for CD69 expression.

[7] = tested on: HEK293-PSMA cells (PSMA expressing); assay: Cytokine production of engineered ABT cells following stimulation with HEK293-PSMA cells; assay type: cell-based, human
Procedure: Measuring cytokine production following stimulation with HEK-293 cells: In a 96 well round bottom plate, 4E5 HEK293-PSMA cells (PSMA expressing) or HEK293-WT cells were incubated with 4E5 Anti-DNP TAC ABT cells, Anti-DNP DAP12 SAR ABT cells, or Anti-CD28 CAR ABT-cells. […] To stop the activation 20 mM EDTA was added and incubated for 15 minutes. Cells were stained for surface expression of CD4 and CD8, fixed and permeabilized in Cytofix/Cytoperm buffer, and stained with APC-conjugated mouse anti-human interferon-gamma, and FITC-conjugated mouse anti-human tumor necrosis factor-alpha. Cells were then run on the Beckman Coulter Cytoflex flow cytometer. The percent of cells positive for tumor necrosis factor-alpha and interferon-gamma for CD4 and CD8 T-cell populations were graphed separately showing the same overall trends.

[8] = tested on: PSMA-positive LNCaP cells; assay: Anti-DNP GDT cell mediated killing of LNCaP cells (Incucyte); assay type: cell-based, human
Procedure: Measuring T cell mediated killing of LNCaP cells: LNCaP prostate cancer cells, which are prostate specific membrane antigen (PSMA) positive, were engineered with Nuclight Red lentivirus to produce cells with nuclear localized red fluorescence to allow for ease of imaging in these experiments. […] Samples were run in triplicate. The number of LNCaP cells per well at each time point was calculated using the Incucyte cell by cell analysis software and plotted. The area under the growth curve was used as a metric for tumor cell growth for this figure. The larger the area, the greater the tumor cell growth that occurred over the 3 days. The area under the curve for the LNCaP control and each condition were used to calculate the % cytotoxicity.

[9] = tested on: PSMA-positive LNCaP cells; assay: Anti-DNP TAC ABT cell mediated killing of LNCaP cells (Incucyte); assay type: cell-based, human
Procedure: Measuring T cell mediated killing of LNCaP cells: LNCaP prostate cancer cells, which are prostate specific membrane antigen (PSMA) positive, were engineered with Nuclight Red lentivirus to produce cells with nuclear localized red fluorescence to allow for ease of imaging in these experiments. […] The 3 components were co-cultured for 3 days with 4 images per well taken every 6 hours. Samples were run in triplicate. The number of LnCap cells per well at each time point was calculated using the Incucyte cell by cell analysis software and plotted. The area under the growth curve was used as a metric for tumor cell growth for this figure. The larger the area, the greater the tumor cell growth that occurred over the 3 days. The area under the curve for the LnCap control and each condition were used to calculate the % cytotoxicity.

[10] = tested on: 293-PSMA cells; assay: CD69 and Nur77 expression of activated ABT cells with 293-PSMA cells; assay type: cell-based, human; details: Anti-DNP TAC-T cells; 10 nM and 1 nM
From the text: Cells were stained for surface marker expression via Pacific Blue-conjugated mouse anti-human CD4, and AlexaFluor700-conjugated mouse anti-human CD8a, VioBright FITC-conjugated mouse anti-human NGFR, and anti-huCD69, fixed and permeabilized in Permiabilization concentrate diluted in permeabilization diluent, and stained intracellularly with PE-conjugated mouse anti-mouse Nur77.

CC1NC(=O)NC1CCCCCC(=O)NCCOCCOCCOCCOC(=O)n1cnc(CCNC(=O)CNc2ccc([N+](=O)[O-])cc2[N+](=O)[O-])c1 (stereo not shown) [DNP-Acyl Imidazole-Desthiobiotin]
labeling time course (binding) [1]: rapid covalent binding
labeling time course (binding) [2]: rapid covalent binding
time to maximal loading of DNP-TAC T cells [2]: several hours
time until all Anti-DNP TAC T cells are loaded [2]: ≤ 30 min
covalent binding and labeling of T cells (Streptavidin-PE) [2]: can covalently bind and label
labeling time course (binding) [3]: rapid covalent binding

CC1NC(=O)NC1CCCCCC(=O)NCCOCCOC(=O)NCCOCCNC(=O)CNc1ccc([N+](=O)[O-])cc1[N+](=O)[O-] (stereo not shown) [DNP-Desthiobiotin, reference compound]
labeling time course (binding) [1]: minimal binding
labeling time course (binding) [2]: complete absence of binding
covalent binding and labeling of T cells (Streptavidin-PE) [2]: cannot
labeling time course (binding) [3]: minimal binding

O=C(O)CC[C@H](NC(=O)N[C@@H](CCCCNC(=O)NCCOCCOCCOCCOCCOCCOCCOCCOC(=O)NCCOCCNC(=O)CNc1ccc([N+](=O)[O-])cc1[N+](=O)[O-])C(=O)O)C(=O)O [PSMA-(N)CIR, DNP-Glutamate-Urea-Lysine, reference compound]
production of IFN-gamma and TNF-alpha [4]: failed to demonstrated any evidence of activation
T cell proliferation (percent divided) ([5]; Anti-DNP12 SAR T cells, 1 nM or 10 nM): did not proliferate
T cell proliferation (percent divided) ([5]; Anti-DNP DAP12 SAR T cells, 1 nM, 10 nM, or 100 nM): little proliferation
T cell proliferation (percent divided) ([5]; Anti-DNP DAP12 SAR T cells, 100 nM): modest proliferation
T cell proliferation (percent divided) ([5]; Anti-DNP TAC T cells, 1, 10, 100 nM, 3 days): failed to proliferate above background; also recorded: little proliferation
T cell activation based on upregulation of CD69 [6]: failed to demonstrated any evidence of activation
cytokine production ([7]; CD28-CAR T cells, highest concentration (100 nM)): equivalent levels of cytokine production
cytokine production ([7]; DAP12-SAR T cells, 1, 10, 100 nM): some cytokine production was observed with higher concentrations; also recorded: could be activated by both CIR and (N)CIR
cytokine production ([7]; TAC T cells, 1, 10, 100 nM): no cytokine production
killing of LNCaP cells at limiting concentration ([8]; Anti-DNP CD28 CAR GDT cells, 10 nM or 1 nM adapter): inability of the PSMA-(N)CIR to effectuate killing
tumor killing over a range of concentrations ([8]; Anti-DNP CD28 CAR GDT cells, 15 nM to 250 nM): diminished at lower levels
killing of LNCaP cells ([8]; Anti-DNP CD28 CAR GDT cells, 125 nM adapter): could direct T cell cytotoxicity; also recorded: displayed tumor growth control
killing of LNCaP cells ([8]; Anti-DNP DAP12-SAR GDT cells, 125 nM adapter): unable to direct T cell cytotoxicity
adapter concentration at which tumor killing is observed ([8]; Anti-DNP DAP12 SAR GDT cells): > 125 nM
killing of LNCaP cells ([8]; Anti-DNP DAP12 SAR GDT cells, 250 nM (highest concentration)): only weak killing
killing of LNCaP cells after preincubation and wash ([8]; Anti-DNP DAP12 SAR and Anti-DNP CD28 CAR GDT cells, 1 uM adapter for 6 hours, washed, then co-culture): Only the T cells incubated with the PSMA-CIR retained the ability to kill
killing of LNCaP cells ([8]; CD28 CAR GDT cells, 10 nM adapter): unable to elicit any killing
LNCaP killing over a range of concentrations ([8]; both Anti-DNP DAP12-SAR GDT cells and Anti-DNP CD28 CAR GDT cells, 15.6 nM-250 nM): killing diminished with lower concentrations
killing of LNCaP cells ([9]; E:T 8:1, 15.63 nM to 125 nM, 3 days): unable to direct T cell cytotoxicity; also recorded: did not promote killing of LNCaP cells at any concentration
concentration effective at engaging tumor killing ([9]; E:T 8:1, 3 days): > 125 nM
T cell activation (Nur77, CD69) [10]: only the PSMA-CIR could elicit T cell activation
